Legend:
Type in all cases: in vivo
Kochia (Kochia scoparia) [1] = experiment: Test A preemergence; conditions: Bassia scoparia, pre-emergence, 240 h, Preemergence
In short: (§1)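 In a loam soil and sand blend, planted seeds got a preemergence directed soil spray, and young plants at the one- to two-leaf stage, 2–10 cm high, got a postemergence application; ~10 d greenhouse hold; injury rated visually, 0 = none, 100 = complete control.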

[2] = system: barnyardgrass (Echinochloa crus-galli); experiment: Test A preemergence; conditions: Echinochloa crus-galli, pre-emergence, 240 h, Preemergence
In short: as §1

[3] = system: giant foxtail (Setaria faberii); experiment: Test A preemergence; conditions: Setaria faberi, pre-emergence, 240 h, Preemergence
In short: as §1

[4] = system: pigweed (Amaranthus retroflexus); experiment: Test A preemergence; conditions: Amaranthus retroflexus, pre-emergence, 240 h, Preemergence
[5] = system: ragweed (common ragweed, Ambrosia elatior); experiment: Test A preemergence; conditions: Ambrosia artemisiifolia, pre-emergence, 240 h, Preemergence
In short: as §1

[6] = system: ryegrass, Italian (Italian ryegrass, Lolium multiflorum); experiment: Test A preemergence; conditions: Lolium multiflorum, pre-emergence, 240 h, Preemergence
In short: as §1

[7] = system: Galium (catchweed bedstraw, Galium aparine); experiment: Test A postemergence; conditions: Galium, post-emergence, 240 h, Postemergence
In short: as §1

Kochia (Kochia scoparia) [8] = experiment: Test A postemergence; conditions: Bassia scoparia, post-emergence, 240 h, Postemergence
In short: as §1

[9] = system: barnyardgrass (Echinochloa crus-galli); experiment: Test A postemergence; conditions: Echinochloa crus-galli, post-emergence, 240 h, Postemergence
In short: as §1

[10] = system: blackgrass (Alopecurus myosuroides); experiment: Test A postemergence; conditions: Alopecurus myosuroides, post-emergence, 240 h, Postemergence
In short: as §1

corn (Zea mays) = experiment: Test A postemergence; conditions: Zea mays, post-emergence, 240 h, Postemergence
In short: as §1

[11] = system: giant foxtail (Setaria faberii); experiment: Test A postemergence; conditions: Setaria faberi, post-emergence, 240 h, Postemergence
In short: as §1

[12] = system: pigweed (Amaranthus retroflexus); experiment: Test A postemergence; conditions: Amaranthus retroflexus, post-emergence, 240 h, Postemergence
In short: as §1

[13] = system: ragweed (common ragweed, Ambrosia elatior); experiment: Test A postemergence; conditions: Ambrosia artemisiifolia, post-emergence, 240 h, Postemergence
In short: as §1

[14] = system: ryegrass, Italian (Italian ryegrass, Lolium multiflorum); experiment: Test A postemergence; conditions: Lolium multiflorum, post-emergence, 240 h, Postemergence
In short: as §1

[15] = system: wheat (Triticum aestivum); experiment: Test A postemergence; conditions: Triticum aestivum, post-emergence, 240 h, Postemergence
In short: as §1

[16] = system: barnyardgrass (Echinochloa crus-galli); experiment: Test B flooded paddy test; conditions: Echinochloa crus-galli, 360 h, Flood, 250 g ai/ha; visually evaluated after 13 to 15 d; read-out: Plant response rating, Barnyardgrass (0 to 100 scale where 0 is no effect and 100 is complete control)
In short: (§2)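 Flooding to 3 cm over soil accompanied treatment, which consisted of adding compound to the standing water around 2-leaf plants; depth was then maintained. Visual assessment versus controls followed at 13 to 15 d (scale 0–100, 0 meaning no effect).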

[17] = system: ducksalad (Heteranthera limosa); experiment: Test B flooded paddy test; conditions: Heteranthera limosa, 360 h, Flood, 250 g ai/ha; visually evaluated after 13 to 15 d; read-out: Plant response rating, Ducksalad (0 to 100 scale where 0 is no effect and 100 is complete control)
In short: as §2

rice (Oryra sativa) = experiment: Test B flooded paddy test; conditions: Oryza sativa, 360 h, Flood, 250 g ai/ha; visually evaluated after 13 to 15 d; read-out: Plant response rating, Rice (0 to 100 scale where 0 is no effect and 100 is complete control)
In short: as §2

[18] = system: sedge, umbrella (small-flower umbrella sedge, Cyperus difformis); experiment: Test B flooded paddy test; conditions: Cyperus difformis, 360 h, Flood, 250 g ai/ha; visually evaluated after 13 to 15 d; read-out: Plant response rating, Sedge, Umbrella (0 to 100 scale where 0 is no effect and 100 is complete control)
In short: as §2

Cc1ccc([C@H]2CN(C)C(=O)[C@@H]2C(=O)Nc2ccc(F)nc2F)cc1 [Compound 1402]
pest or weed control at 31 g/ha (Kochia (Kochia scoparia) [1]; 31 g ai/ha, 0 to 100 scale where 0 is no effect and 100 is complete control, read-out: Kochia plant response rating): 20%
pest or weed control at 125 g/ha (Kochia (Kochia scoparia) [1]; 125 g ai/ha, 0 to 100 scale (0 no effect, 100 complete control), read-out: Plant response rating, Kochia): 80%
pest or weed control at 31 g/ha ([2]; 31 g ai/ha, 0 to 100 scale where 0 is no effect and 100 is complete control, read-out: Barnyardgrass plant response rating): 100%
pest or weed control at 125 g/ha ([2]; 125 g ai/ha, 0 to 100 scale (0 no effect, 100 complete control), read-out: Plant response rating, Barnyardgrass): 90%
pest or weed control at 31 g/ha ([3]; 31 g ai/ha, 0 to 100 scale where 0 is no effect and 100 is complete control, read-out: Foxtail, Giant plant response rating): 100%
pest or weed control at 125 g/ha ([3]; 125 g ai/ha, 0 to 100 scale (0 no effect, 100 complete control), read-out: Plant response rating, Foxtail, Giant): 100%
pest or weed control at 31 g/ha ([4]; 31 g ai/ha, 0 to 100 scale where 0 is no effect and 100 is complete control, read-out: Pigweed plant response rating): 20%
pest or weed control at 125 g/ha ([4]; 125 g ai/ha, 0 to 100 scale (0 no effect, 100 complete control), read-out: Plant response rating, Pigweed): 90%
pest or weed control at 31 g/ha ([5]; 31 g ai/ha, 0 to 100 scale where 0 is no effect and 100 is complete control, read-out: Ragweed plant response rating): 30%
pest or weed control at 125 g/ha ([5]; 125 g ai/ha, 0 to 100 scale (0 no effect, 100 complete control), read-out: Plant response rating, Ragweed): 0%
pest or weed control at 31 g/ha ([6]; 31 g ai/ha, 0 to 100 scale where 0 is no effect and 100 is complete control, read-out: Ryegrass, Italian plant response rating): 0%
pest or weed control at 125 g/ha ([6]; 125 g ai/ha, 0 to 100 scale (0 no effect, 100 complete control), read-out: Plant response rating, Ryegrass, Italian): 0%
pest or weed control at 31 g/ha ([7]; 31 g ai/ha, 0 is no effect, 100 is complete control, read-out: Galium plant response rating (0 to 100 scale)): 60%
pest or weed control at 125 g/ha ([7]; 125 g ai/ha, visual injury after approx. 10 d, 0 to 100 scale, 0 no effect, 100 complete control, read-out: Plant response rating, Galium): 70%
pest or weed control at 31 g/ha (Kochia (Kochia scoparia) [8]; 31 g ai/ha, 0 is no effect, 100 is complete control, read-out: Kochia plant response rating (0 to 100 scale)): 30%
pest or weed control at 125 g/ha (Kochia (Kochia scoparia) [8]; 125 g ai/ha, visual injury after approx. 10 d, 0 to 100 scale, 0 no effect, 100 complete control, read-out: Plant response rating, Kochia): 70%
pest or weed control at 31 g/ha ([9]; 31 g ai/ha, 0 is no effect, 100 is complete control, read-out: Barnyardgrass plant response rating (0 to 100 scale)): 80%
pest or weed control at 125 g/ha ([9]; 125 g ai/ha, visual injury after approx. 10 d, 0 to 100 scale, 0 no effect, 100 complete control, read-out: Plant response rating, Barnyardgrass): 90%
pest or weed control at 31 g/ha ([10]; 31 g ai/ha, 0 is no effect, 100 is complete control, read-out: Blackgrass plant response rating (0 to 100 scale)): 0%
pest or weed control at 125 g/ha ([10]; 125 g ai/ha, visual injury after approx. 10 d, 0 to 100 scale, 0 no effect, 100 complete control, read-out: Plant response rating, Blackgrass): 50%
plant injury at 31 g/ha (corn (Zea mays); 31 g ai/ha, 0 is no effect, 100 is complete control, read-out: Corn plant response rating (0 to 100 scale)): 0%
Corn plant response rating (crop injury, 0 = no effect, 100 = complete kill) at 125 g/ha (corn (Zea mays); 125 g ai/ha, visual injury after approx. 10 d, 0 to 100 scale, 0 no effect, 100 complete control): 0%
pest or weed control at 31 g/ha ([11]; 31 g ai/ha, 0 is no effect, 100 is complete control, read-out: Foxtail, Giant plant response rating (0 to 100 scale)): 50%
pest or weed control at 125 g/ha ([11]; 125 g ai/ha, visual injury after approx. 10 d, 0 to 100 scale, 0 no effect, 100 complete control, read-out: Plant response rating, Foxtail, Giant): 90%
pest or weed control at 31 g/ha ([12]; 31 g ai/ha, 0 is no effect, 100 is complete control, read-out: Pigweed plant response rating (0 to 100 scale)): 0%
pest or weed control at 125 g/ha ([12]; 125 g ai/ha, visual injury after approx. 10 d, 0 to 100 scale, 0 no effect, 100 complete control, read-out: Plant response rating, Pigweed): 0%
pest or weed control at 31 g/ha ([13]; 31 g ai/ha, 0 is no effect, 100 is complete control, read-out: Ragweed plant response rating (0 to 100 scale)): 0%
pest or weed control at 125 g/ha ([13]; 125 g ai/ha, visual injury after approx. 10 d, 0 to 100 scale, 0 no effect, 100 complete control, read-out: Plant response rating, Ragweed): 20%
pest or weed control at 31 g/ha ([14]; 31 g ai/ha, 0 is no effect, 100 is complete control, read-out: Ryegrass, Italian plant response rating (0 to 100 scale)): 0%
pest or weed control at 125 g/ha ([14]; 125 g ai/ha, visual injury after approx. 10 d, 0 to 100 scale, 0 no effect, 100 complete control, read-out: Plant response rating, Ryegrass, Italian): 0%
plant injury at 31 g/ha ([15]; 31 g ai/ha, 0 is no effect, 100 is complete control, read-out: Wheat plant response rating (0 to 100 scale)): 20%
plant injury at 125 g/ha ([15]; 125 g ai/ha, visual injury after approx. 10 d, 0 to 100 scale, 0 no effect, 100 complete control, read-out: Plant response rating, Wheat): 40%
pest or weed control at 250 g/ha [16]: 90%
pest or weed control at 250 g/ha [17]: 95%
pest or weed control at 250 g/ha (rice (Oryra sativa)): 0%
pest or weed control at 250 g/ha [18]: 0%

From patent US12077503B2, “Substituted cyclic amides and their use as herbicides” (FMC CORPORATION, priority 2015, dated 2024)
